Reference: US20250144067A1, “PERSONALIZED STARVATION THERAPY FOR CANCER” (Faeth Therapeutics, Inc., priority 2021, published 2025)
Counter-ions that a name gives are not always drawn. Like-named read-outs stand apart in the source and are kept apart here.

Assays:
[1] = system: NCI-H292 lung cancer cells; assay: FDA drug screening, complete media vs cholesterol-free media with simvastatin (TABLE 2); assay type: cell-based, human
[2] = system: NCI-H292 lung cancer cells; assay: FDA drug screening, complete media vs cholesterol-free media without statin (TABLE 1); assay type: cell-based, human
[3] = NCI-H292 cells, FDA library drug in cholesterol-free media with simvastatin 0.04 μM
[4] = NCI-H292 cells, FDA library drug in complete media
[5] = complete media vs cholesterol-free media + simvastatin (0.04 μM), >0 enhanced anti-cancer activity, about 0 neutral, <0 antagonist
[6] = NCI-H292 cells, cholesterol-free media without statin, FDA drug library screen
[7] = NCI-H292 cells, complete media, FDA drug library screen
[8] = complete vs cholesterol-free media, >0 enhanced anti-cancer activity, about 0 neutral, <0 antagonist
[9] = NCI-H292 cells, FDA drug library screen, cholesterol-free media with simvastatin 0.04 μM
[10] = Complete minus Cholesterol-free, greater than 0 enhanced anti-cancer activity, about 0 neutral, below 0 antagonist
[11] = NCI-H292 cells, FDA drug library screen, cholesterol-free media without statin
[12] = NCI-H292 cells, FDA drug library screen, complete media
[13] = NCI-H292 cells, cholesterol-free media with simvastatin 0.04 μM, FDA drug library screen (TABLE 2)
[14] = NCI-H292 cells, complete media, FDA drug library screen (TABLE 2)
[15] = complete media minus cholesterol-free media + simvastatin (0.04 μM), >0 enhanced anti-cancer activity, about 0 neutral, <0 antagonist
[16] = Complete minus Cholesterol-free, greater than 0 enhanced anti-cancer activity, about 0 neutral, below 0 antagonists
[17] = NCI-H292 cells in cholesterol-free media without statin
[18] = NCI-H292 cells in complete media
[19] = NCI-H292 cells, drug in cholesterol-free media with simvastatin 0.04 μM
[20] = NCI-H292 cells, drug in complete media
[21] = Complete minus Cholesterol-free, >0 enhanced anti-cancer activity, about 0 neutral, <0 antagonist
[22] = NCI-H292 cells, cholesterol-free media without statin
[23] = complete media minus cholesterol-free media + simvastatin, >0 enhanced anti-cancer activity, about 0 neutral, <0 antagonist
[24] = NCI-H292 cells, cholesterol-free media with simvastatin 0.04 μM, cell growth value in FDA drug screen
[25] = NCI-H292 cells, complete media, cell growth value in FDA drug screen
[26] = complete vs cholesterol-free media, greater than 0 enhanced anti-cancer activity, about 0 neutral, below 0 antagonists
[27] = NCI-H292 cells, cholesterol-free media with simvastatin 0.04 μM, […]
[28] = NCI-H292 cells, complete media, […]
[29] = complete media minus cholesterol-free media + simvastatin, […]
[30] = complete vs cholesterol-free media, […]

## CN1CCCN=C1/C=C/c1cccs1.O=C(O)c1cc2ccccc2c(Cc2c(O)c(C(=O)O)cc3ccccc23)c1O [Pyrantel (pamoate)]
[1]; [3]
  Cholesterol-free media + simvastatin (0.04 μM): 1.254
[1]; [4]
  Complete Media: 0.856
[1]; [5]
  Difference: −0.40
[2]; [6]
  Cholesterol-free: 1.079
[2]; [7]
  Complete: 1.203
[2]; [8]
  Difference: 0.12

## C=CCc1ccccc1OCC(O)CNC(C)C (centres unmarked) [Alprenolol (hydrochloride)]
[1]; [9]
  Cholesterol-free media + simvastatin (0.04 μM): 1.228
[1]; [5]
  Difference: −0.08
[2]; [10]
  Difference: −0.15
[2]; [11]
  Cholesterol-free: 1.198
[2]; [12]
  Complete: 1.044

## Chlorpheniramine (maleate)
[1]; [13]
  Cholesterol-free media + simvastatin (0.04 μM): 1.426
[1]; [14]
  Complete Media: 1.414
[1]; [15]
  Difference: −0.01
[2]; [16]
  Difference: −0.51
[2]; [17]
  Cholesterol-free: 1.451
[2]; [18]
  Complete: 0.9428

## CCC(=O)NS(=O)(=O)c1ccc(-c2c(-c3ccccc3)noc2C)cc1 [Parecoxib]
[1]; [19]
  Cholesterol-free media + simvastatin (0.04 μM): 0.9747
[1]; [20]
  Complete Media: 0.7244
[1]; [5]
  Difference: −0.25
[2]; [21]
  Difference: −0.20
[2]; [22]
  Cholesterol-free: 0.9171
[2]; NCI-H292 cells, complete media
  Complete: 0.7131

## Nc1c(Br)cc(Br)cc1CN[C@H]1CC[C@H](O)CC1 [Ambroxol]
[1]; [9]
  Cholesterol-free media + simvastatin (0.04 μM): 1.121
[1]; [12]
  Complete Media: 0.9656
[1]; [5]
  Difference: −0.16
[2]; [21]
  Difference: −0.22
[2]; [22]
  Cholesterol-free: 1.134
[2]; NCI-H292 cells, complete media
  Complete: 0.9121

## C[C@]1(Cn2ccnn2)[C@H](C(=O)O)N2C(=O)C[C@H]2S1(=O)=O [Tazobactam]
[1]; [9]
  Cholesterol-free media + simvastatin (0.04 μM): 1.141
[1]; [12]
  Complete Media: 1.299
[1]; [23]
  Difference: 0.16
[2]; [10]
  Difference: −0.10
[2]; [11]
  Cholesterol-free: 1.004
[2]; [12]
  Complete: 0.9006

## O=C(N/N=C/c1ccc([N+](=O)[O-])o1)c1ccc(O)cc1 [Nifuroxazide]
[1]; [24]
  Cholesterol-free media + simvastatin (0.04 μM): 1.161
[1]; [25]
  Complete Media: 1.265
[1]; [23]
  Difference: 0.10
[2]; [21]
  Difference: −0.04
[2]; [6]
  Cholesterol-free: 0.9553
[2]; [7]
  Complete: 0.9139

## CCOc1cc(CC(=O)N[C@@H](CC(C)C)c2ccccc2N2CCCCC2)ccc1C(=O)O [Repaglinide]
[1]; [19]
  Cholesterol-free media + simvastatin (0.04 μM): 0.996
[1]; [20]
  Complete Media: 0.8125
[1]; [5]
  Difference: −0.18
[2]; [10]
  Difference: −0.08
[2]; [11]
  Cholesterol-free: 1.088
[2]; [12]
  Complete: 1.008

## Nc1nc(Cl)nc2c1ncn2[C@@H]1O[C@H](CO)[C@@H](O)[C@@H]1F [Clofarabine]
[1]; [13]
  Cholesterol-free media + simvastatin (0.04 μM): 0.03305
[1]; [14]
  Complete Media: 0.03609
[1]; [15]
  Difference: 0.00
[2]; [22]
  Cholesterol-free: 0.802
[2]; NCI-H292 cells, complete media
  Complete: 0.4474
[2]; [26]
  Difference: −0.35

## C[C@H](CCC(=O)NCCS(=O)(=O)[O-])[C@H]1CC[C@H]2[C@@H]3[C@@H](O)C[C@@H]4C[C@H](O)CC[C@]4(C)[C@H]3CC[C@]12C.[Na+] [Taurochenodeoxycholic acid (sodium salt)]
[1]; [3]
  Cholesterol-free media + simvastatin (0.04 μM): 1.88
[1]; [4]
  Complete Media: 1.535
[1]; complete media vs cholesterol-free media + simvastatin (0.04 μM), […]
  Difference: −0.35
[2]; Complete minus Cholesterol-free, […]
  Difference: −0.22
[2]; [22]
  Cholesterol-free: 0.9501
[2]; NCI-H292 cells, complete media
  Complete: 0.7299

## Cl.Cl.NCCc1c[nH]cn1 [Histamine (dihydrochloride)]
[1]
  Cholesterol-free media + simvastatin (0.04 μM): 0.9209
  Complete Media: 0.9238
  Difference: 0.00
[2]
  Cholesterol-free: 1.708
  Complete: 1.081
  Difference: −0.63

## C/C=C(/C)C(=O)O[C@H]1C(C)=C[C@]23C(=O)[C@@H](C=C(CO)[C@@H](O)[C@]12O)[C@H]1[C@@H](C[C@H]3C)C1(C)C [Ingenol Mebutate]
[1]; [27]
  Cholesterol-free media + simvastatin (0.04 μM): 0.2962
[1]; [28]
  Complete Media: 0.4169
[1]; [29]
  Difference: 0.12
[2]; [22]
  Cholesterol-free: 0.6991
[2]; NCI-H292 cells, complete media
  Complete: 0.3918
[2]; [30]
  Difference: −0.31

## CCC(=O)O[C@H]1[C@H](O[C@@H]2[C@@H](C)[C@H](O[C@H]3C[C@@](C)(OC)[C@@H](O)[C@H](C)O3)[C@@H](C)C(=O)O[C@H](CC)[C@@](C)(O)[C@H](O)[C@@H](C)C(=O)[C@H](C)C[C@@]2(C)O)O[C@H](C)C[C@@H]1N(C)C [Erythromycin estolate]
[1]; [3]
  Cholesterol-free media + simvastatin (0.04 μM): 1.347
[1]; [4]
  Complete Media: 1.076
[1]; [5]
  Difference: −0.27
[2]; [6]
  Cholesterol-free: 0.6279
[2]; [7]
  Complete: 1.129
[2]; [8]
  Difference: 0.50

## CCOC(=O)[C@H](CCc1ccccc1)N[C@@H](C)C(=O)N1Cc2ccccc2C[C@H]1C(=O)O [Quinapril (hydrochloride)]
[1]; [3]
  Cholesterol-free media + simvastatin (0.04 μM): 1.23
[1]; [4]
  Complete Media: 0.862
[1]; [5]
  Difference: −0.37
[2]; [6]
  Cholesterol-free: 0.6191
[2]; [7]
  Complete: 0.9945
[2]; [8]
  Difference: 0.38

## CS(=O)(=O)CCNCc1ccc(-c2ccc3ncnc(Nc4ccc(OCc5cccc(F)c5)c(Cl)c4)c3c2)o1 [Lapatinib]
[1]; [24]
  Cholesterol-free media + simvastatin (0.04 μM): 0.4073
[1]; [25]
  Complete Media: 0.4535
[1]; [23]
  Difference: 0.05
[2]; [21]
  Difference: −0.07
[2]; [6]
  Cholesterol-free: 0.3435
[2]; [7]
  Complete: 0.2753

## O=C1C=C2C=C[C@@H]3C[C@@]2(O1)[C@H]1CCCCN31 [(−)-Securinine]
[1]; [27]
  Cholesterol-free media + simvastatin (0.04 μM): 0.8712
[1]; [28]
  Complete Media: 0.9865
[1]; [29]
  Difference: 0.12
[2]; [6]
  Cholesterol-free: 0.7572
[2]; [7]
  Complete: 0.9271
[2]; [30]
  Difference: 0.17

## CCCc1nc(C(C)(C)O)c(C(=O)O)n1Cc1ccc(-c2ccccc2-c2nnn[nH]2)cc1 [Olmesartan]
[1]; [19]
  Cholesterol-free media + simvastatin (0.04 μM): 1.131
[1]; [20]
  Complete Media: 0.942
[1]; [5]
  Difference: −0.19
[2]; [22]
  Cholesterol-free: 1.93
[2]; NCI-H292 cells, complete media
  Complete: 1.465
[2]; [26]
  Difference: −0.46

## CNS(=O)(=O)CCc1ccc2[nH]cc(C3CCN(C)CC3)c2c1 [Naratriptan (hydrochloride)]
[1]; [19]
  Cholesterol-free media + simvastatin (0.04 μM): 1.179
[1]; [20]
  Complete Media: 0.9588
[1]; [5]
  Difference: −0.22
[2]; [10]
  Difference: −0.17
[2]; [11]
  Cholesterol-free: 1.077
[2]; [12]
  Complete: 0.9077

## NCCCC(N)(C(=O)O)C(F)F (centres unmarked) [Eflornithine (hydrochloride hydrate)]
[1]; [19]
  Cholesterol-free media + simvastatin (0.04 μM): 1.426
[1]; [20]
  Complete Media: 1.224
[1]; [5]
  Difference: −0.20
[2]; [21]
  Difference: −0.22
[2]; [22]
  Cholesterol-free: 0.965
[2]; NCI-H292 cells, complete media
  Complete: 0.7419

## N[C@@H]1CONC1=O [D-Cycloserine]
[1]; [19]
  Cholesterol-free media + simvastatin (0.04 μM): 1.193
[1]; [20]
  Complete Media: 1.005
[1]; [5]
  Difference: −0.19
[2]; [22]
  Cholesterol-free: 1.516
[2]; [26]
  Difference: −0.37

## CNC[C@H](O)c1cccc(O)c1 [Phenylephrine (hydrochloride)]
[1]; [9]
  Cholesterol-free media + simvastatin (0.04 μM): 2.302
[1]; [15]
  Difference: −1.21
[2]; [16]
  Difference: −0.61
[2]; [17]
  Cholesterol-free: 1.371
[2]; [18]
  Complete: 0.7558

## OC(CNCC(O)C1CCc2cc(F)ccc2O1)C1CCc2cc(F)ccc2O1 (centres unmarked) [Nebivolol (hydrochloride)]
[1]; [13]
  Cholesterol-free media + simvastatin (0.04 μM): 0.9013
[1]; [14]
  Complete Media: 0.8774
[1]; [15]
  Difference: −0.02
[2]; [6]
  Cholesterol-free: 0.567
[2]; [8]
  Difference: 0.61
